Calls of active or inactive are those of the source. No cut-off for these calls is given here.
How the values were obtained:
[1] = Antiproliferative activity against human DU145-TxR cells measured after 72 hrs by MTS assay; assay type: functional, cell-based
[2] = Antiproliferative activity against human PC3/TxR cells measured after 72 hrs by MTS assay; assay type: functional, cell-based
[3] = test system: M14; test: Antiproliferative activity against human M14 cells measured after 72 hrs by MTS assay; assay type: functional, cell-based; details: M14, 72 h
[4] = test system: A-375; test: Antitumor activity against human A375 cells xenografted in ip dosed NSG mouse assessed as suppression of tumor growth by measuring decrease in number Ki67 positive cells administered 5 times per week for 14 days measured post-last dose by immunohistochemical analysis; assay type: functional, organism-based
[5] = test system: DU-145; test: Antiproliferative activity against human DU145 cells measured after 72 hrs by MTS assay; assay type: functional, cell-based; details: DU-145, 72 h
[6] = test system: A-375; test: Antitumor activity against human A375 cells xenografted in NSG mouse assessed as disruption of tumor vasculature development by measuring decrease in CD31 staining at 10 to 20 mg/kg, ip administered 5 times per week for 14 days measured post-last dose by immunohistochemical analysis; assay type: functional, organism-based
[7] = test system: A-375; test: Antitumor activity against human A375 cells xenografted in NSG mouse assessed as reduction in tumor weight at 10 mg/kg, ip administered 5 times per week for 14 days relative to control; assay type: functional; parameters: scale not given: the % may be the effect or the level left
[8] = biological target: T1, Tubulin (Sus scrofa) (UniProt P02554+P02550); test: Inhibition of porcine brain tubulin polymerization at 10 uM measured at 30 secs interval for 65 mins by spectrophotometric method
[9] = test system: A-375; test: Antitumor activity against human A375 cells xenografted in NSG mouse assessed as reduction in tumor size at 10 to 20 mg/kg, ip administered 5 times per week for 14 days by digital caliper method; assay type: functional, organism-based
[10] = test system: PC-3; test: Antiproliferative activity against human PC3 cells measured after 72 hrs by MTS assay; assay type: functional, cell-based; details: PC-3, 72 h
[11] = biological target: T2, Tubulin (Sus scrofa, UniProt P02554+P02550); test: (§1) Binding affinity to porcine brain tubulin polymerization by surface plasmon analysis analysis
[12] = biological target: T1, Tubulin (Sus scrofa); test: as §1
[13] = Resistance index, ratio of IC50 for antiproliferative activity against human PC3/TxR cells to IC50 for antiproliferative activity against human PC3 cells; assay type: functional
[14] = test system: A-375; test: Antitumor activity against human A375 cells xenografted in NSG mouse assessed as tumor necrosis at 10 to 20 mg/kg, ip administered 5 times per week for 14 days measured post-last dose by H and E staining-based microscopic analysis; assay type: functional, organism-based
[15] = test system: A-375; test: Antitumor activity against human A375 cells xenografted in NSG mouse assessed as reduction in tumor weight at 20 mg/kg, ip administered 5 times per week for 14 days relative to control; assay type: functional; parameters: scale not given: the % may be the effect or the level left
[16] = test system: SK-BR-3; test: Antiproliferative activity against human SK-BR-3 cells measured after 72 hrs by MTS assay; assay type: functional, cell-based; details: SK-BR-3, 72 h
[17] = test system: A-375; test: Antitumor activity against human A375 cells xenografted in NSG mouse assessed as reduction in tumor volume at 20 mg/kg, ip administered 5 times per week for 14 days relative to control; assay type: functional; parameters: scale not given: the % may be the effect or the level left
[18] = Toxicity in human A375 cells xenografted NSG mouse assessed as decrease in body weight loss at 10 to 20 mg/kg, ip administered 5 times per week for 14 days measured 3 times a week during compound dosing; assay type: organism-based; details: in vivo, 336 h
[19] = Resistance index, ratio of IC50 for antiproliferative activity against human M14/LCC6MDR1 cells to IC50 for antiproliferative activity against human M14 cells; assay type: functional
[20] = test system: A-375; test: Antitumor activity against human A375 cells xenografted in NSG mouse assessed as reduction in tumor volume at 10 mg/kg, ip administered 5 times per week for 14 days relative to control; assay type: functional; parameters: scale not given: the % may be the effect or the level left
[21] = test system: A-375; test: Antiproliferative activity against human A375 cells measured after 72 hrs by MTS assay; assay type: functional, cell-based; details: A-375, 72 h
[22] = test system: MDA-MB-231; test: Antiproliferative activity against human MDA-MB-231 cells measured after 72 hrs by MTS assay; assay type: functional, cell-based; details: MDA-MB-231, 72 h
[23] = test system: RPMI-7951; test: Antiproliferative activity against human RPMI7951 cells measured after 72 hrs by MTS assay; assay type: functional, cell-based; details: RPMI-7951, 72 h
[24] = test system: A-375; test: Antitumor activity against human A375 cells xenografted in NSG mouse assessed as increase in cleaved PARP level at 10 to 20 mg/kg, ip administered 5 times per week for 14 days measured post-last dose by immunohistochemical analysis; assay type: functional, organism-based
[25] = Antiproliferative activity against human M14/LCC6MDR1 cells measured after 72 hrs by MTS assay; assay type: functional, cell-based
[26] = test system: MDA-MB-453; test: Antiproliferative activity against human MDA-MB-453 cells measured after 72 hrs by MTS assay; assay type: functional, cell-based; details: MDA-MB-453, 72 h
[27] = test system: A-375; test: Antitumor activity against human A375 cells xenografted in ip dosed NSG mouse assessed as tumor growth inhibition administered 5 times per week for 14 days; assay type: functional, organism-based
[28] = Resistance index, ratio of IC50 for antiproliferative activity against human DU145-TxR cells to IC50 for antiproliferative activity against human DU145 cells; assay type: functional
[29] = biological target: T2, Tubulin; test: (§2) Inhibition of porcine brain tubulin polymerization measured at 30 secs interval for 65 mins by spectrophotometric method
[30] = biological target: T1, Tubulin (Sus scrofa); test: as §2

T1 sequence (P02550 whole entry, looked up): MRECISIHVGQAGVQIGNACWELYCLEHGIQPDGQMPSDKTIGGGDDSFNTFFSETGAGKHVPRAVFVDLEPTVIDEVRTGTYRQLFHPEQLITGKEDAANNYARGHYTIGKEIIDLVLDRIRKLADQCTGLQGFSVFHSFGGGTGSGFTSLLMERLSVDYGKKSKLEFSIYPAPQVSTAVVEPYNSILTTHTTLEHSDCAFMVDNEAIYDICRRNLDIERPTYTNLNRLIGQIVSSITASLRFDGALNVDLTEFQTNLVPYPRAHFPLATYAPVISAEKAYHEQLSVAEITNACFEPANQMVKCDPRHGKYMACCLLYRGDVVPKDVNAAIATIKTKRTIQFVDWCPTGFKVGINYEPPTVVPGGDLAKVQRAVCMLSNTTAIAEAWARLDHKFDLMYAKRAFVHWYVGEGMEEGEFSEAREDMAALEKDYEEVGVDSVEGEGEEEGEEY
T1 sequence (P02554 whole entry, looked up): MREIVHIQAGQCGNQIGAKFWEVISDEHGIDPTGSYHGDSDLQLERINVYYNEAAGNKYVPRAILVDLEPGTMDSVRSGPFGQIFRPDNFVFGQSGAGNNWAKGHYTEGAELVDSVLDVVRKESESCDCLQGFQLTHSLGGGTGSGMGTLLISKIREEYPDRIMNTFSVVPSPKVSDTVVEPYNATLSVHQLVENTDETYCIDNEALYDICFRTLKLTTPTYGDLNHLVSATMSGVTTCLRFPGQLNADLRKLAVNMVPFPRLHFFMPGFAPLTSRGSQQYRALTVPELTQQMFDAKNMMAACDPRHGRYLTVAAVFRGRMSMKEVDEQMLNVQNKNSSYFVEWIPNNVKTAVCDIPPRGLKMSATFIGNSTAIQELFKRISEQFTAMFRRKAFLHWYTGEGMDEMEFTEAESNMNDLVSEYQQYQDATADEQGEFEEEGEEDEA

Row | SMILES | IC50 [1] [nM] | IC50 [2] [nM] | IC50 [3] [nM] | IC50 [5] [nM] | inhibition [8] | IC50 [10] [nM] | IC50 [16] [nM] | IC50 [21] [nM] | IC50 [22] [nM] | IC50 [23] [nM] | IC50 [25] [nM] | IC50 [26] [nM] | further results
1 | COc1cc(C(=O)c2cccc(-c3ccc(C)c(O)c3)n2)cc(OC)c1OC | 2.8 | 2.5 | 0.9 to 1.7 | 3.7 | Active | 1.7 | 2.8 | 1.5 | 1.7 | 1.7 | 1.4 | 1.2 | Activity [4]: Dose-dependent effect; Activity [6]: Active; Activity [7]: 48.81%; Activity [9]: Active; Kd [11]: 2660 nM; Activity [12]: Dose-dependent effect; Ratio IC50 [13]: 1.5; Activity [14]: Active; Activity [15]: 83.33%; Activity [17]: 88.5%; Activity [18]: Non-Toxic; Ratio IC50 [19]: 1.5; Activity [20]: 58.54%; Activity [24]: Active; TGI [27]: Dose-dependent effect; Ratio IC50 [28]: 0.8; IC50 [29]: 5000 to 10000 nM; inhibition [30]: Dose-dependent effect
2 | CC(=O)O[C@H]1C(=O)[C@@]2(C)[C@H]([C@H](OC(=O)c3ccccc3)[C@]3(O)C[C@H](OC(=O)[C@H](O)[C@@H](NC(=O)c4ccccc4)c4ccccc4)C(C)=C1C3(C)C)[C@]1(OC(C)=O)CO[C@@H]1C[C@@H]2O [PACLITAXEL] | > 1000 | 148 | – | – | – | 1.9 | – | – | – | – | 200 | – | –
3 | COc1cc2c(c(OC)c1OC)-c1ccc(OC)c(=O)cc1[C@@H](NC(C)=O)CC2 [COLCHICINE] | > 1000 | 56.3 | 9.3 | 17.3 | – | 19 | – | – | – | – | 1400 | – | –
4 | COc1cc(C(=O)c2cccc(-c3ccc(C)cc3)n2)cc(OC)c1OC | – | – | 4.9 | – | Active | – | 4.8 | 5.9 | 4.9 | 7.2 | – | 5 | –

Source: ChEMBL document CHEMBL4376868, “Structure-Activity Relationship Study of Novel 6-Aryl-2-benzoyl-pyridines as Tubulin Polymerization Inhibitors with Potent Antiproliferative Properties” (J Med Chem, 2020)
